Measurements: article PMC9127750, “Structure-based design of CDC42 effector interaction inhibitors for the treatment of cancer” (Cell reports, 2022)
“And” between values parts separate entries of the source, which are not always exact repeats. Equal values may be shown once.

Tested on: WM3248 melanoma cells, 486 antibodies
Assay: Reverse phase protein arrays (RPPA)
Assay type: cell-based, Human
Conditions: 10 uM, single replicates
Source text: Pellets were snap frozen in liquid nitrogen and shipped to MD Anderson Cancer Center core RPPA facility for RPPA analysis (Table S5). Three biological replicates for each sample were generated.
Nomenclatures on the RPPA heatmaps: name_of_antibody.species_of_antibody.status_of_antibody. V - antibody validated; C - validation of antibody in progress; Q - antibody nonspecific; E – under evaluation; antibodies raised in M - mouse, G - goat, R - rabbit, or T - rat.

CN(C)c1cccc(Nc2cc(-c3ccccc3)nc(C3CCNCC3)n2)c1 [ARN22089, N1,N1-dimethyl-N3-(6-phenyl-2-(piperidin-4-yl)pyrimidin-4-yl)benzene-1,3-diamine]
RPPA PDHA1.R.V: 0.868 and 1.050
RPPA PDHK1.R.C: 0.847 and 0.989 and 1.019
RPPA PDK1.R.V: 1.007 and 1.121 and 1.006
RPPA PDK1_pS241.R.V: 0.935 and 0.909 and 0.981
RPPA PEA.15.R.V: 0.898 and 0.934 (2×)
RPPA PEA.15_pS116.R.V: 0.987
RPPA PERK.R.V: 0.972 and 0.874
RPPA PGM1.R.V: 1.007 and 0.983 and 1.004
RPPA PHGDH.R.C: 0.889 and 1.016
RPPA PHLPP.R.V: 1.515 and 0.856 and 0.877
RPPA PI3K.p85.R.C: 1.113 and 1.033
RPPA PI3K.p110.a.R.C: 0.828 and 0.921 and 0.963
RPPA PI3K.p110.b.M.C: 0.981 and 0.937
RPPA PKA.a.R.V: 1.016 and 0.756 and 0.860
RPPA PKC.a.b.II_pT638_T641.R.V: 0.761 and 0.940 and 1.029
RPPA PKC.b.II_pS660.R.V: 0.960 and 1.055
RPPA PKCa.R.V: 1.576 and 0.715 and 0.684
RPPA PKM2.R.C: 0.940 and 0.831 and 1.047
RPPA PLC.gamma1.R.V: 1.302 and 0.921 and 1.027
RPPA PLC.gamma1_pS1248.R.V: 1.246 and 0.852 and 0.899
RPPA PLC.gamma2_pY759.R.V: 1.055 and 1.008 and 1.052
RPPA PLK1.R.C: 1.052 and 0.570
RPPA PMS2.R.V: 1.013 and 1.061 and 1.035
RPPA PR.R.V: 1.051 and 1.057 and 1.083
RPPA PRAS40.M.C: 1.053 and 1.125 and 0.970
RPPA PRAS40_pT246.R.V: 0.997 and 0.945 and 0.929
RPPA PRC1_pT481.R.C: 1.013
RPPA PREX1.R.V: 0.847 and 0.880 and 1.018
RPPA PTEN.R.V: 0.967 and 0.919
RPPA PTPN12.R.V: 0.922 and 0.923
RPPA PYGB.R.V: 1.000 and 1.018
RPPA PYGM.M.C: 0.933 and 0.899 and 1.244
RPPA Patched.R.C: 0.891 and 1.022 and 1.001
RPPA Paxillin.R.C: 0.651 and 0.874 and 0.967
RPPA Pdcd4.R.C: 1.032 and 0.964 and 0.935
RPPA Porin.M.V: 0.986 and 1.054 and 1.019
RPPA Puma.R.C: 1.032 and 0.898 and 0.973
RPPA Pyk2_pY402.R.C: 0.958 and 0.968 and 0.955
RPPA RBM15.R.V: 0.860 and 0.890 and 0.867
RPPA RIP3.R.C: 0.858 and 0.945
RPPA RIP.R.C: 0.855 and 1.003
RPPA RPA32.R.V: 1.116 and 1.009 and 0.985
RPPA RPA32_pS4_S8.R.C: 1.499 and 0.874 and 0.876
RPPA RRM1.R.C: 0.796
RPPA RRM2.R.C: 0.716 and 0.950 and 1.085
RPPA RSK1.R.V: 1.235 and 0.841
RPPA RSK.R.C: 1.016 and 0.831 and 0.880
RPPA Rab11.R.C: 0.965 and 1.012 and 0.993
RPPA Rab25.R.V: 0.970 and 0.991 and 0.975
RPPA Rad17_pS645.R.V: 1.158
RPPA Rad23A.R.C: 0.785 and 0.923 and 1.052
RPPA Rad50.R.V: 1.047 and 1.001 and 0.925
RPPA Rad51.R.C: 1.141
RPPA Raptor.R.V: 0.898 and 0.967 and 0.952
RPPA Rb.M.Q: 1.031
RPPA Rb_pS807_S811.R.V: 0.993 and 0.916 and 0.946
RPPA Rheb.M.C: 1.005
RPPA Rictor.R.C: 0.984 and 0.977 and 0.904
RPPA Rictor_pT1135.R.V: 1.006 and 1.049 and 1.026
RPPA S6.M.V: 1.029 and 0.890 and 0.873
RPPA S6_pS235_S236.R.V: 0.665 and 0.702 and 0.771
RPPA S6_pS240_S244.R.V: 1.130 and 0.761 and 0.978
RPPA SCD.M.V: 0.998 and 1.016
RPPA SDHA.R.V: 0.885 and 1.085 and 0.936
RPPA SF2.R.V: 0.975 and 1.048 and 0.992
RPPA SFRP1.R.V: 0.871 and 0.955
RPPA SGK1.R.V: 1.123 and 0.868
RPPA SGK3.R.V: 0.999 and 1.114 and 0.994
RPPA SHP2.R.V: 1.022 and 1.001 and 0.989
RPPA SHP.2_pY542.R.C: 0.948 and 0.890 and 0.849
RPPA SIRPαR.V: 1.018 and 0.987 and 1.021
RPPA SLC1A5.R.C: 0.918 and 0.893 and 1.114
RPPA SOD1.M.V: 1.011 and 1.084 and 0.999
RPPA SOD2.R.V: 1.111 and 1.200 and 1.033
RPPA SOX7.R.V: 1.014 and 0.995
RPPA STING.R.V: 0.837 and 0.985 and 0.890
RPPA Shc_pY317.R.C: 0.828 and 3.472 and 1.241
RPPA Slfn11.G.C: 0.855 and 0.895
RPPA Smac.M.Q: 0.941 and 1.118 and 0.934
RPPA Smad1.R.V: 0.926 and 1.050
RPPA Smad3.R.V: 0.971 and 0.982 (2×)
RPPA Smad4.R.V: 1.125 and 1.111 and 0.988
RPPA Snail.M.Q: 0.848 and 1.076 and 1.006
RPPA Sox2.R.V: 0.994 and 0.995 and 0.973
RPPA Sox17.R.V: 1.081 and 0.902
RPPA Src.M.V: 0.986 and 1.228 and 1.023
RPPA Src_pY416.R.V: 1.112 and 0.914
RPPA Src_pY527.R.V: 1.187 and 0.891 and 0.646
RPPA Stat1_pY701.R.V: 1.116 and 1.000 and 0.989
RPPA Stat3.R.C: 0.928 and 0.967 and 1.021
RPPA Stat3_pY705.R.C: 1.145 and 0.998 and 0.863
RPPA Stat5a.R.V: 1.136 and 0.906 and 0.832
RPPA Stathmin.1.R.V: 0.796 and 1.056 and 1.053
RPPA Syk.M.V: 0.989 and 1.109 and 1.102
RPPA Synaptophysin.R.C: 1.199 and 0.991
RPPA TAZ.R.V: 0.707 and 1.122 and 1.046
RPPA TEAD.R.C: 0.724 and 1.098 and 1.080
RPPA TFAM.R.V: 0.916 and 0.953 and 0.872
RPPA TFRC.R.V: 0.933 and 0.837 and 1.007
RPPA TIGAR.R.V: 1.010 and 0.954 and 0.970
RPPA TRAP1.M.V: 0.985
RPPA TRIM24.R.C: 1.099 and 1.139 and 0.970
RPPA TRIM25.R.C: 0.787 and 0.889 and 0.933
RPPA TRIP13.R.V: 1.107 and 0.967 and 1.005
RPPA Tau.M.C: 1.121 and 1.140
RPPA Transglutaminase.M.V: 0.953 and 1.132 and 1.561
RPPA level HLA.DQA1.R.V: 0.942 and 1.249 and 0.908
RPPA level HLA.DR.DP.DQ.DX.R.C: 0.965 and 0.939
RPPA level HMHA1.R.V: 0.904 and 1.030 and 0.992
RPPA level HNRNPK.R.V: 1.000 and 1.157 and 1.048
RPPA level HSP27.M.C: 1.035 and 0.965
RPPA level HSP27_pS82.R.V: 0.973 and 1.006 and 0.985
RPPA level HSP60.R.V: 0.817 and 0.961
RPPA level HSP70.R.C: 0.863 and 0.990 and 0.973
RPPA level Hexokinase.I.R.C: 1.158 and 0.954
RPPA level Hexokinase.II.R.V: 1.125 and 0.921 and 0.919
RPPA level Hif.1αR.C: 1.247 and 1.014 and 0.671
RPPA level Histone.H3.R.V: 0.930 and 0.956 and 0.776
RPPA level Histone.H3_pS10.R.V: 1.200 and 0.894 and 1.027
RPPA level IDO.R.C: 0.882 and 1.060
RPPA level IGF1R_pY1135_Y1136.R.V: 0.904 and 0.968 and 0.956
RPPA level IGFBP2.R.V: 0.540 and 0.765
RPPA level IGFBP3.M.V: 0.727 and 1.079 and 1.122
RPPA level IGFRb.R.C: 0.931 and 1.005 and 0.850
RPPA level IL.6.R.C: 0.856 and 0.994 and 1.019
RPPA level IMP3.R.C: 1.033 and 1.014 and 0.956
RPPA level INPP4b.R.C: 0.980 and 0.827
RPPA level IR.b.R.C: 0.942 and 1.158 and 1.047
RPPA level IRF.1.R.V: 0.733 and 0.989 and 0.863
RPPA level IRF.3.R.V: 1.005 and 1.049 and 1.057
RPPA level IRS1.R.V: 0.956 and 0.975 and 0.990
RPPA level IRS2.R.C: 1.250 and 0.922 and 0.822
RPPA level JAB1.M.C: 0.937 and 1.033
RPPA level JNK2.R.V: 0.765 and 3.367 and 1.426
RPPA level JNK_pT183_Y185.R.C: 0.982 and 0.932 and 1.030
RPPA level Jagged1.R.V: 0.877 and 1.048
RPPA level Jak2.R.V: 0.931 (2×) and 1.019
RPPA level KAP1.R.V: 1.035 and 0.844 and 0.861
RPPA level KEAP1.R.V: 1.174 and 0.839
RPPA level LAD1.R.V: 0.772 and 1.056 and 1.078
RPPA level LC3A.B.R.C: 1.052 and 0.957 and 0.853
RPPA level LCN2.R.V: 2.061 and 0.840 and 0.854
RPPA level LDHA.R.C: 0.770 and 1.150
RPPA level LRP6_pS1490.R.V: 0.906 and 0.988 and 0.894
RPPA level Lasu1.R.V: 1.033 and 1.132 and 1.052
RPPA level Lck.R.V: 0.988 and 0.991 and 0.942
RPPA level Lyn.R.V: 1.113 and 1.221 and 0.942
RPPA level MACC1.R.V: 1.081 and 1.061 and 1.005
RPPA level MAPK_pT202_Y204.R.C: 0.770 and 0.851 and 1.246
RPPA level MCT4.R.V: 0.673 and 0.768 and 1.020
RPPA level MDM2_pS166.R.V: 1.142 and 0.902
RPPA level MEK1.R.V: 2.774 and 0.771 and 0.759
RPPA level MEK1_pS217_S221.R.V: 1.065 and 0.907 and 1.005
RPPA level MEK2.R.V: 0.928 and 1.010 and 0.996
RPPA level MERIT40.R.C: 0.985
RPPA level MERIT40_pS29.R.V: 0.918 and 1.049
RPPA level METTL3.R.V: 1.128 and 1.097 and 0.930
RPPA level MIF.R.C: 1.023 and 1.117 and 1.048
RPPA level MIG6.R.V: 0.921 and 1.139 and 1.007
RPPA level MITF.R.V: 1.105 and 1.065 and 0.952
RPPA level MLH1.M.V: 1.000 and 0.967
RPPA level MLKL.R.V: 0.819 and 0.881 and 1.048
RPPA level MMP2.R.V: 1.026 and 0.968 and 0.958
